Assay results taken from patent publication US20110105389A1 (priority 2009, published 2011).
Like-named read-outs stand apart in the source and are kept apart here.

What was measured:
[1] = biological target: T1, human ghrelin receptor (GRLN, growth hormone secretagogue receptor, hGHS-R1a) (Homo sapiens, UniProt Q92847); test: Competitive radioligand binding assay (ghrelin receptor), Method B1
T1 construct: purchased PerkinElmer BioSignal #RBHGHSM, lot#1887; host or cells: HEK-293 cells, stably transfected (membranes)
T1 sequence (Q92847 whole entry): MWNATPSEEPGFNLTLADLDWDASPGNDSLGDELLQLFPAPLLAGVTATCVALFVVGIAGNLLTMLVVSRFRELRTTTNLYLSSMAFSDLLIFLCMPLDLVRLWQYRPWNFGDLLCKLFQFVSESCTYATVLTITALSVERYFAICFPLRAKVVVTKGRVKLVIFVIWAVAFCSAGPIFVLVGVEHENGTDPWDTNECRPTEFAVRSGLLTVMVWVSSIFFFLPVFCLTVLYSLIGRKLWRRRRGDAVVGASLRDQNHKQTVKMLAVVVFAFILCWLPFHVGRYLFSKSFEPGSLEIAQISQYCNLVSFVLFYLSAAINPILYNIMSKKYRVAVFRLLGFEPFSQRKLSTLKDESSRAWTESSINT
How it was run: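 Membranes incubated with compound 30 min at rt in 25 mM Hepes pH 7.4, 1 mM CaCl2, 5 mM MgCl2, 2.5 mM EDTA, 0.4% BSA, max 0.1% DMSO; filtered on PEI-soaked GF/C, washed with cold Tris, scintillation counted. Curves fitted by variable-slope non-linear regression.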

[2] = biological target: T2, ghrelin receptor (HEK-GHSR1 stable cells) (Homo sapiens, UniProt Q92847); test: Ghrelin receptor inverse agonist assay (HTRF IP-one), Method B4; format: cell-based
T2 construct: expressed in transfected cells
T2 sequence (Q92847 whole entry): as above
How it was run: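 HEK cells stably expressing GHSR1, seeded at 100 000 cells/well overnight, exposed to compound for 30 min at 37° C. Cells then lysed and IP1 accumulation measured by HTRF (d2 plus anti-IP1 cryptate, 1 h at room temp). Wells lacking d2 served as negative control.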

[3] = Metabolic stability in human liver microsomes, Method B8; format: in vitro ADME; conditions: human liver microsomes 0.8 mg/mL, 5 μM compound, 37° C.
How it was run: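 Pooled human liver microsomes (15 mixed-sex donors) at 0.8 mg/mL in 100 mM potassium phosphate, pH 7.4, with 1.5 mM NADPH and 8 mM MgCl2. Compounds tested in duplicate at a single 5 μM (0.05% DMSO), incubated at 37° C.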

[4] = Ghrelin receptor binding activity, Method B1
[5] = inverse agonist at the ghrelin receptor, Method B4

Row | SMILES | IC50 [1] [nM] | IC50 [2] [nM] | HLM, metabolic stability in human liver microsomes [3] [μL/min/mg protein] | IC50 [1, 4] [nM] | IC50 [2, 5] [nM]
1 | Cc1cccc(C[C@H]2NC(=O)[C@H](C(C)O)N(C)C(=O)[C@H](C(C)C)NCCOc3ccccc3C[C@H](O)CNC2=O)c1 (stereo partly drawn) [Compound 1453] | 1 to 10 | 10 to 50 | – | – | –
2 | CC(C)[C@@H]1NCCOc2ccccc2C[C@H](O)[C@@H](C)NC(=O)[C@@H](Cc2cccc(F)c2)NC(=O)[C@H](C(C)O)N(C)C1=O (stereo partly drawn) [Compound 1503] | 1 to 10 | 10 to 50 | 20.9 | – | –
3 | CC[C@@H]1CCc2ccc(F)cc2OCCN[C@@H](C(C)C)C(=O)N(C)[C@@H](C(C)O)C(=O)N[C@H](Cc2c[nH]c3ccccc23)C(=O)N1 (stereo partly drawn) [Compound 1505] | 1 to 10 | 100 to 500 | 51.5 | – | –
4 | CC(C)[C@@H]1NCCOc2ccccc2C#C[C@@H](C)NC(=O)[C@@H](Cc2ccccc2)NC(=O)[C@H](C(C)O)N(C)C1=O (stereo partly drawn) [Compound 1688] | 1 to 10 | 50 to 100 | 41.4 | – | –
5 | CC(C)C1NCCOc2ccccc2C#CCNC(=O)C(Cc2c[nH]c3ccccc23)NC(=O)C(C(C)O)N(C)C1=O (stereo not drawn) [Compound 1692] | – | – | 121 | 1 to 10 | 100 to 500
6 | CC(C)C1NCCOc2cc(F)ccc2C#CCNC(=O)C(Cc2c[nH]c3ccccc23)NC(=O)C(C(C)O)N(C)C1=O (stereo not drawn) [Compound 1693] | – | – | 83.8 | 10 to 100 | 100 to 500
7 | CCC1CCc2ccc(F)cc2OCCNC(C2(C)CC2)C(=O)N(C)C(C(C)O)C(=O)NC(Cc2c[nH]c3ccccc23)C(=O)N1 (stereo not drawn) [Compound 1703] | – | – | 44.8 | 1 to 10 | 50 to 100
8 | CC[C@@H]1C#Cc2ccc(F)cc2O[C@H](C)CN[C@@H](C2(C)CC2)C(=O)N(C)[C@@H](C(C)O)C(=O)N[C@H](Cc2c[nH]c3ccccc23)C(=O)N1 (stereo partly drawn) [Compound 1707] | – | – | 27.3 | 10 to 100 | 100 to 500
9 | CC(C)[C@@H]1NCCOc2ccccc2C#CCNC(=O)[C@@H](Cc2ccccc2)NC(=O)[C@H](C(C)O)N(C)C1=O (stereo partly drawn) [Compound 1712] | 1 to 10 | 50 to 100 | 58.2 | – | –
10 | CC(O)[C@H]1C(=O)N[C@H](Cc2c[nH]c3ccccc23)C(=O)N[C@H](C)C#Cc2ccccc2OCCN[C@@H](C2(C)CC2)C(=O)N1C (stereo partly drawn) [Compound 1713] | – | – | 48.8 | 1 to 10 | 50 to 100
11 | CC[C@@H]1C#Cc2ccccc2O[C@H](C)CN[C@@H](C2(C)CC2)C(=O)N(C)[C@@H](C(C)O)C(=O)N[C@H](Cc2c[nH]c3ccccc23)C(=O)N1 (stereo partly drawn) [Compound 1718] | – | – | 43.6 | 1 to 10 | 50 to 100
12 | CC(O)[C@H]1C(=O)N[C@H](Cc2c[nH]c3ccccc23)C(=O)N[C@H](C)CCc2ccc(F)cc2O[C@H](C)CN[C@@H](C2(C)CC2)C(=O)N1C (stereo partly drawn) [Compound 1719] | – | – | 23.4 | 10 to 100 | 100 to 500
13 | CC(O)[C@H]1C(=O)N[C@H](Cc2c[nH]c3ccccc23)C(=O)N[C@H](C)C#Cc2ccc(F)cc2O[C@H](C)CN[C@@H](C2(C)CC2)C(=O)N1C (stereo partly drawn) [Compound 1720] | – | – | 23.2 | 10 to 100 | 100 to 500
14 | CC[C@@H]1C#Cc2c(F)cccc2OCCN[C@@H](C(C)C)C(=O)N(C)[C@@H](C(C)O)C(=O)N[C@H](Cc2c[nH]c3ccccc23)C(=O)N1 (stereo partly drawn) [Compound 1726] | – | – | 41.5 | 10 to 100 | 50 to 100
15 | CC[C@@H]1CCc2ccc(F)cc2OCCN[C@@H](C2(C)CC2)C(=O)N(C)[C@@H](C(C)O)C(=O)N[C@H](Cc2ccccc2)C(=O)N1 (stereo partly drawn) [Compound 1746] | – | – | 38.6 | 1 to 10 | 50 to 100
16 | CC[C@@H]1CCc2ccc(F)cc2OCCN[C@@H](C(C)C)C(=O)N(C)[C@@H](C(C)O)C(=O)N[C@H](Cc2ccc(O)cc2)C(=O)N1 (stereo partly drawn) [Compound 1751] | – | – | 109.6 | 1 to 10 | 100 to 500
17 | CC[C@@H]1C#Cc2ccccc2OCCN[C@@H](C(C)C)C(=O)N(C)[C@@H](C(C)O)C(=O)N[C@H](Cc2c[nH]c3ccccc23)C(=O)N1 (stereo partly drawn) [Compound 1754] | – | – | 43.7 | 1 to 10 | 50 to 100
18 | CC[C@@H]1C#Cc2ccc(F)cc2OCCN[C@@H](C(C)C)C(=O)N(C)[C@@H](C(C)O)C(=O)N[C@H](Cc2c[nH]c3ccccc23)C(=O)N1 (stereo partly drawn) [Compound 1755] | – | – | 47.8 | 1 to 10 | 50 to 100
19 | CC(C)[C@@H]1NCC2CCc3cccc(c3O2)CCCNC(=O)[C@@H](Cc2ccccc2)NC(=O)[C@H](C(C)O)N(C)C1=O (stereo partly drawn) [Compound 1777] | – | – | 39.6 | 1 to 10 | 50 to 100
20 | CC(O)[C@H]1C(=O)N[C@H](Cc2ccccc2)C(=O)NCCCc2cccc3c2OC(CC3)CN[C@@H](C2CC2)C(=O)N1C (stereo partly drawn) [Compound 1778] | 10 to 100 | 100 to 500 | 58.1 | – | –
21 | CC[C@@H]1NCC2CCc3cccc(c3O2)CCCNC(=O)[C@@H](Cc2ccccc2)NC(=O)[C@H](C(C)O)N(C)C1=O (stereo partly drawn) [Compound 1780] | 10 to 100 | 50 to 100 | 25.3 | – | –
22 | CC(C)[C@@H]1NCCOc2ccccc2C2CCC(C2)NC(=O)[C@@H](Cc2c[nH]c3ccccc23)NC(=O)[C@H](C(C)O)N(C)C1=O (stereo partly drawn) [Compound 1843] | – | – | 33.7 | 10 to 100 | 10 to 50
23 | CC(C)[C@@H]1NCCOc2ccccc2C2CCC(C2)NC(=O)[C@@H](Cc2ccccc2)NC(=O)[C@H](C(C)O)N(C)C1=O (stereo partly drawn) [Compound 1848] | – | – | 60.7 | – | –
24 | CC(O)[C@H]1C(=O)N[C@H](Cc2ccccc2)C(=O)NCC#Cc2c(F)cccc2OCCN[C@@H](C2(C)CC2)C(=O)N1C (stereo partly drawn) [Compound 1876] | 1 to 10 | 50 to 100 | 30.9 | – | –
25 | CC(O)[C@H]1C(=O)N[C@H](Cc2ccccc2)C(=O)NCC#Cc2ccccc2OCCN[C@@H](C2(C)CC2)C(=O)N1C (stereo partly drawn) [Compound 1878] | 1 to 10 | 10 to 50 | 34.7 | – | –
26 | CC(C)[C@@H]1NCCOc2ccccc2C2CCC(C2)NC(=O)[C@@H](Cc2ccc(F)cc2)NC(=O)[C@H](C(C)O)N(C)C1=O (stereo partly drawn) [Compound 1903] | – | – | 47.9 | – | –
27 | CC(O)[C@H]1C(=O)N[C@H](Cc2ccccc2)C(=O)NCC#Cc2ccc(F)cc2OCCN[C@@H](C2(C)CC2)C(=O)N1C (stereo partly drawn) [Compound 1918] | 1 to 10 | 50 to 100 | 14.3 | – | –
28 | CC(C)[C@@H]1NCCOc2cccc(F)c2C#CCNC(=O)[C@@H](Cc2ccccc2)NC(=O)[C@H](C(C)O)N(C)C1=O (stereo partly drawn) [Compound 1929] | 1 to 10 | 50 to 100 | – | – | –
